# Data taken from PMC6225228, “Design, Synthesis and Evaluation of N-pyrazinylbenzamides as Potential Antimycobacterial Agents” (Molecules : A Journal of Synthetic Chemistry and Natural …, 2018).
# Read-outs that look alike come from different tables or passages of the source.
# Legend:
# [1] = tested on: Staphylococcus aureus CCM 4516/08; assay: Antibacterial microdilution broth, SA; type: cell-based; settings: Staphylococcus aureus
# [2] = tested on: eight fungal strains of clinical importance; assay: Antifungal microdilution, all tested fungal strains; type: cell-based; settings: Trichophyton interdigitale, read-out: MIC, all tested fungal strains
# [3] = tested on: Staphylococcus epidermidis H 6966/08; assay: Antibacterial microdilution broth, SE; type: cell-based; settings: read-out: MIC SE
# [4] = tested on: Trichophyton interdigitale 445; assay: Antifungal microdilution broth, TI; type: cell-based; settings: read-out: MIC TI
# [5] = tested on: Pseudomonas aeruginosa CCM 1961; assay: Antibacterial microdilution broth, PA; type: cell-based; settings: Pseudomonas aeruginosa, read-out: MIC PA
# [6] = tested on: Mycobacterium tuberculosis H37Rv CNCTC My 331/88 (ATCC 27294); assay: Antimycobacterial microdilution MABA, M. tuberculosis; type: cell-based; settings: for Mtb H37Rv ATCC 27294 MIC: Middlebrook 7H9 with OADC growth supplement, pH = 6.6, MABA; for MIC: Mycobacterium tuberculosis, read-out: Mtb H37Rv ATCC 27294 MIC, Middlebrook 7H9 with OADC growth supplement, pH = 6.6, MABA
# [7] = tested on: Trichosporon asahii 1188; assay: Antifungal microdilution broth, TA; type: cell-based; settings: read-out: MIC TA
# [8] = tested on: M. avium ssp. avium CNCTC My 80/72 (ATCC 15769); assay: Antimycobacterial microdilution MABA, M. avium; type: cell-based, Mycobacterium avium; settings: for MIC: Mycobacterium avium, ATCC15769, pH 6.6, read-out: M. avium ATCC 15769 MIC
# [9] = tested on: Candida krusei E28; assay: Antifungal microdilution broth, CK; type: cell-based; settings: Pichia kudriavzevii, read-out: MIC CK
# [10] = tested on: Staphylococcus aureus H 5996/08 methicillin resistant; assay: microbe, parasite or virus in culture; type: cell-based; settings: for MIC: Staphylococcus aureus, MRSA, read-out: MIC MRSA
# [11] = tested on: Mycobacterium smegmatis CCM 4622 (ATCC 607); assay: Antimycobacterial microdilution, M. smegmatis; type: cell-based; settings: Mycolicibacterium smegmatis, read-out: M. smeg. ATCC 607 MIC
# [12] = tested on: Enterococcus sp. J 14365/08; assay: Antibacterial microdilution broth, EF; type: cell-based; settings: Enterococcus, read-out: MIC EF
# [13] = tested on: Candida albicans ATCC 44859; assay: Antifungal microdilution broth, CA; type: cell-based; settings: Candida albicans, read-out: MIC CA
# [14] = tested on: Aspergillus fumigatus 231; assay: Antifungal microdilution broth, AF; type: cell-based; settings: read-out: MIC AF
# [15] = tested on: Escherichia coli CCM 4517; assay: Antibacterial microdilution broth, EC; type: cell-based; settings: Escherichia coli, read-out: MIC EC
# [16] = tested on: M. kansasii CNCTC My 235/80 (ATCC 12478); assay: Antimycobacterial microdilution MABA, M. kansasii; type: cell-based, Mycobacterium kansasii; settings: for MIC: Mycobacterium kansasii, ATCC12478, pH 6.6, read-out: M. kans. ATCC 12478 MIC, Middlebrook 7H9 with OADC, pH 6.6, MABA
# [17] = tested on: Candida glabrata 20/I; assay: Antifungal microdilution broth, CG; type: cell-based; settings: Nakaseomyces glabratus, 20/I, read-out: MIC CG
# [18] = tested on: Candida tropicalis 156; assay: Antifungal microdilution broth, CT; type: cell-based; settings: read-out: MIC CT
# [19] = tested on: Lichtheimia corymbifera 272; assay: Antifungal microdilution broth, LC; type: cell-based; settings: read-out: MIC LC
# [20] = human, HepG2 cells
# [21] = CCM4516, 24 h, read-out: MIC SA, 24 h
# [22] = CCM4516, 48 h, read-out: MIC SA, 48 h
# [23] = Staphylococcus epidermidis, H6966/08, 24 h
# [24] = Staphylococcus epidermidis, H6966/08, 48 h
# [25] = Trichophyton interdigitale, 445, 72 h
# [26] = Trichophyton interdigitale, 445, 120 h
# [27] = Trichosporon asahii, 1188, 24 h
# [28] = Trichosporon asahii, 1188, 48 h
# [29] = Aspergillus fumigatus, 231, 24 h
# [30] = Aspergillus fumigatus, 231, 48 h
# [31] = Lichtheimia corymbifera, 272, 24 h
# [32] = Lichtheimia corymbifera, 272, 48 h
# [33] = Middlebrook 7H9 with OADC, pH 6.6, MABA
smiles,measurement,setting,value
O=C(Nc1cnc(Cl)cn1)c1ccc(O)cc1 [Compound 2d],MIC,[1]; [21],31.2 µM
same,MIC,[1]; [22],31.2 µM
same,MIC,[2],≥ 500 µM
same,MIC,[3]; [23],500 µM
same,MIC,[3]; [24],500 µM
same,MIC,[4]; [25],> 500 µM
same,MIC,[4]; [26],> 500 µM
same,MIC,"[5]; CCM1961, 72 h",> 500 µM
same,MIC,"[5]; CCM1961, 120 h",> 500 µM
same,Mtb H37Rv ATCC 27294 MIC,[6],>100 µg/mL
same,MIC,[6],> 100 µg/mL
same,MIC,[7]; [27],> 500 µM
same,MIC,[7]; [28],> 500 µM
same,MIC,[8],> 100 µg/mL
same,MIC,"[9]; E28, 24 h",> 500 µM
same,MIC,"[9]; E28, 48 h",> 500 µM
same,MIC MRSA,[10]; 24 h,>500 µM
same,MIC MRSA,[10]; 48 h,>500 µM
same,MIC,[10]; 24 h,> 500 µM
same,MIC,[10]; 48 h,> 500 µM
same,MIC,[11],≥ 500 µg/mL
same,MIC,"[12]; SP.J14365/08, 24 h",> 500 µM
same,MIC,"[12]; SP.J14365/08, 48 h",> 500 µM
same,MIC,"[13]; ATCC44859, 24 h",500 µM
same,MIC,"[13]; ATCC44859, 48 h",> 500 µM
same,MIC,[14]; [29],> 500 µM
same,MIC,[14]; [30],> 500 µM
same,melting point,,210.9 to 212.6 °C
same,MIC,"[15]; CCM4517, 24 h",> 500 µM
same,MIC,"[15]; CCM4517, 48 h",> 500 µM
same,MIC,[16],> 100 µg/mL
same,MIC,[17]; 24 h,> 500 µM
same,MIC,[17]; 48 h,> 500 µM
same,MIC,"[18]; Candida tropicalis, 156, 24 h",> 500 µM
same,MIC,"[18]; Candida tropicalis, 156, 48 h",> 500 µM
same,MIC,[19]; [31],> 500 µM
same,MIC,[19]; [32],> 500 µM
CC(=O)Oc1ccc(C(=O)Nc2cnc(Cl)cn2)cc1 [Compound 2d-Ac],MIC,[1]; [21],0.98 µM
same,MIC,[1]; [22],0.98 µM
same,MIC,[3]; 24 h,>125 µM
same,MIC,[3]; 48 h,>125 µM
same,MIC,[3]; [23],> 125 µM
same,MIC,[3]; [24],> 125 µM
same,MIC,[4]; [25],> 125 µM
same,MIC,[4]; [26],> 125 µM
same,MIC,"[5]; CCM1961, 72 h",> 125 µM
same,MIC,"[5]; CCM1961, 120 h",> 125 µM
same,Mtb H37Rv ATCC 27294 MIC,[6],>100 µg/mL
same,MIC,[6],> 100 µg/mL
same,Mtb MIC,[6]; molar concentration,inactive
same,MIC,[7]; [27],> 125 µM
same,MIC,[7]; [28],> 125 µM
same,IC50 at 24 h,[20],> 500 µM
same,M. avium ATCC 15769 MIC,[8]; [33],>100 µg/mL
same,MIC,[8],> 100 µg/mL
same,MIC,"[9]; E28, 24 h",> 125 µM
same,MIC,"[9]; E28, 48 h",> 125 µM
same,MIC MRSA,[10]; 24 h,>125 µM
same,MIC MRSA,[10]; 48 h,>125 µM
same,MIC,[10]; 24 h,> 125 µM
same,MIC,[10]; 48 h,> 125 µM
same,MIC,[11],250 µg/mL
same,MIC,"[12]; SP.J14365/08, 24 h",> 125 µM
same,MIC,"[12]; SP.J14365/08, 48 h",> 125 µM
same,MIC,"[13]; ATCC44859, 24 h",> 125 µM
same,MIC,"[13]; ATCC44859, 48 h",> 125 µM
same,MIC,[14]; [29],> 125 µM
same,MIC,[14]; [30],> 125 µM
same,melting point,,170.9 to 171.8 °C
same,MIC,"[15]; CCM4517, 24 h",> 125 µM
same,MIC,"[15]; CCM4517, 48 h",> 125 µM
same,M. kans. ATCC 12478 MIC,[16]; [33],>100 µg/mL
same,MIC,[16],> 100 µg/mL
same,MIC,[17]; 24 h,> 125 µM
same,MIC,[17]; 48 h,> 125 µM
same,MIC,"[18]; Candida tropicalis, 156, 24 h",> 125 µM
same,MIC,"[18]; Candida tropicalis, 156, 48 h",> 125 µM
same,MIC,[19]; [31],> 125 µM
same,MIC,[19]; [32],> 125 µM
